Assay results as given in patent publication US10258634B2, “Ciclesonide for the treatment of airway disease in horses” (Boehringer Ingelheim Vetmedica GmbH, priority 2012, dated 2019).

Tests used:
RAO horses [1] = test: 1st ciclesonide study: moldy hay challenge, lung function variables and breathing effort score; format: in vivo; conditions: after 14 days
RAO horses [2] = test: 1st ciclesonide study: moldy hay challenge, serum cortisol; format: in vivo; conditions: any ciclesonide group (450/900/1800 μg/horse twice daily); any measured time point
RAO horses [3] = test: 2nd ciclesonide study: moldy hay challenge, lung function variables and weighted clinical score; format: in vivo
Source text: (§1) The commercially available […]® is used in the study.

RAO horses [4] = test: 2nd ciclesonide study: moldy hay challenge, serum cortisol; format: in vivo; conditions: any ciclesonide group (1687.5/2700 A/2700 B μg twice daily); any measured time point
Source text: as §1

RAO horses [5] = test: Segmented neutrophil and lymphocyte counts in the 1st and 2nd ciclesonide studies; format: in vivo; conditions: for Lymphocytes / Segmented neutrophils: mean, n=8
Description: as §1
The segmented neutrophil counts and the lymphocyte counts are determined in the studies above: ciclesonide treatment versus dexamethasone treatment.
Concentration of segmented neutrophils and lymphocytes on day (D): D0, D14 and D21 in the treatment groups of dexamethasone and different doses of ciclesonide (n=8) (mean (SEM)

RAO horses [6] = test: 3rd ciclesonide study: moldy hay challenge, lung function variables; format: in vivo; conditions: ciclesonide 2700 μg twice daily / 3712.5 μg once daily morning / 3712.5 μg once daily evening, inhalation, nozzle B; after 14 days
Source text: The horses are challenged by exposure to moldy hay to throughout the whole study.

[7] = Plasma level of ciclesonide and C21-C21-desisobutyrylciclesonide (HPLC-MS/MS), 2nd ciclesonide study; conditions: for concentration at 0 min / concentration at 10 min / concentration at 30 min / concentration at 1 h / concentration at 2 h / concentration at 4 h: horse, plasma, inhaled
[8] = 450 μg ciclesonide/horse twice daily 14 days per inhalation (nozzle A), 1st study, D 0
[9] = 450 μg ciclesonide/horse twice daily 14 days per inhalation (nozzle A), 1st study, D 14
[10] = 450 μg ciclesonide/horse twice daily 14 days per inhalation (nozzle A), 1st study, D 21
[11] = 900 μg ciclesonide/horse twice daily 14 days per inhalation (nozzle A), 1st study, D 0
[12] = 900 μg ciclesonide/horse twice daily 14 days per inhalation (nozzle A), 1st study, D 14
[13] = 900 μg ciclesonide/horse twice daily 14 days per inhalation (nozzle A), 1st study, D 21
[14] = 1687.5 μg ciclesonide/horse twice daily 14 days per inhalation (nozzle B), 2nd study, D 0
[15] = 1687.5 μg ciclesonide/horse twice daily 14 days per inhalation (nozzle B), 2nd study, D 14
[16] = 1687.5 μg ciclesonide/horse twice daily 14 days per inhalation (nozzle B), 2nd study, D 21
[17] = 1800 μg ciclesonide/horse twice daily 14 days per inhalation (nozzle A), 1st study, D 0
[18] = 1800 μg ciclesonide/horse twice daily 14 days per inhalation (nozzle A), 1st study, D 14
[19] = 1800 μg ciclesonide/horse twice daily 14 days per inhalation (nozzle A), 1st study, D 21
[20] = 2700 μg ciclesonide A (nozzle A)/horse twice daily 14 days per inhalation, 2nd study, D 0
[21] = 2700 μg ciclesonide A (nozzle A)/horse twice daily 14 days per inhalation, 2nd study, D 14
[22] = 2700 μg ciclesonide A (nozzle A)/horse twice daily 14 days per inhalation, 2nd study, D 21
[23] = 2700 μg ciclesonide B (nozzle B)/horse twice daily 14 days per inhalation, 2nd study, D 0
[24] = 2700 μg ciclesonide B (nozzle B)/horse twice daily 14 days per inhalation, 2nd study, D 14
[25] = 2700 μg ciclesonide B (nozzle B)/horse twice daily 14 days per inhalation, 2nd study, D 21
[26] = 1st ciclesonide study, after administration of ciclesonide 450/900/1800 μg twice daily
[27] = 2nd ciclesonide study, after administration of ciclesonide 1687.5/2700 μg twice daily
[28] = 1687.5 μg/horse, Ciclesonide concentration (plasma), ciclesonide 1687.5 μg (nozzle B) twice daily per inhalation, day 1
[29] = 1687.5 μg/horse, Ciclesonide concentration (plasma), ciclesonide 1687.5 μg (nozzle B) twice daily per inhalation, day 11
[30] = 2700 μg/horse, Ciclesonide concentration (plasma), ciclesonide 2700 μg A (nozzle A) twice daily per inhalation, day 1
[31] = 2700 μg/horse, Ciclesonide concentration (plasma), ciclesonide 2700 μg A (nozzle A) twice daily per inhalation, day 11
[32] = 2700 μg/horse, Ciclesonide concentration (plasma), ciclesonide 2700 μg B (nozzle B) twice daily per inhalation, day 1
[33] = 2700 μg/horse, Ciclesonide concentration (plasma), ciclesonide 2700 μg B (nozzle B) twice daily per inhalation, day 11

serum cortisol levels (RAO horses [2]): no significant reduction
serum cortisol levels (RAO horses [4]): no significant reduction
Lymphocytes (RAO horses [5]; [8]): 1.96e+09 L⁻¹
Segmented neutrophils (RAO horses [5]; [8]): 4.66e+09 L⁻¹
Lymphocytes (RAO horses [5]; [9]): 1.97e+09 L⁻¹
Segmented neutrophils (RAO horses [5]; [9]): 4.98e+09 L⁻¹
Lymphocytes (RAO horses [5]; [10]): 2.17e+09 L⁻¹
Segmented neutrophils (RAO horses [5]; [10]): 5.48e+09 L⁻¹
Lymphocytes (RAO horses [5]; [11]): 1.85e+09 L⁻¹
Segmented neutrophils (RAO horses [5]; [11]): 5.24e+09 L⁻¹
Lymphocytes (RAO horses [5]; [12]): 2.03e+09 L⁻¹
Segmented neutrophils (RAO horses [5]; [12]): 4.43e+09 L⁻¹
Lymphocytes (RAO horses [5]; [13]): 1.94e+09 L⁻¹
Segmented neutrophils (RAO horses [5]; [13]): 4.91e+09 L⁻¹
Lymphocytes (RAO horses [5]; [14]): 1.93e+09 L⁻¹
Segmented neutrophils (RAO horses [5]; [14]): 4.51e+09 L⁻¹
Lymphocytes (RAO horses [5]; [15]): 1.94e+09 L⁻¹
Segmented neutrophils (RAO horses [5]; [15]): 5.22e+09 L⁻¹
Lymphocytes (RAO horses [5]; [16]): 2.04e+09 L⁻¹
Segmented neutrophils (RAO horses [5]; [16]): 4.55e+09 L⁻¹
Lymphocytes (RAO horses [5]; [17]): 1.95e+09 L⁻¹
Segmented neutrophils (RAO horses [5]; [17]): 4.6e+09 L⁻¹
Lymphocytes (RAO horses [5]; [18]): 1.96e+09 L⁻¹
Segmented neutrophils (RAO horses [5]; [18]): 5.41e+09 L⁻¹
Lymphocytes (RAO horses [5]; [19]): 2.06e+09 L⁻¹
Segmented neutrophils (RAO horses [5]; [19]): 4.93e+09 L⁻¹
Lymphocytes (RAO horses [5]; [20]): 2.04e+09 L⁻¹
Segmented neutrophils (RAO horses [5]; [20]): 4.91e+09 L⁻¹
Lymphocytes (RAO horses [5]; [21]): 2.14e+09 L⁻¹
Segmented neutrophils (RAO horses [5]; [21]): 4.85e+09 L⁻¹
Lymphocytes (RAO horses [5]; [22]): 2.01e+09 L⁻¹
Segmented neutrophils (RAO horses [5]; [22]): 4.41e+09 L⁻¹
Lymphocytes (RAO horses [5]; [23]): 1.8e+09 L⁻¹
Segmented neutrophils (RAO horses [5]; [23]): 4.23e+09 L⁻¹
Lymphocytes (RAO horses [5]; [24]): 1.74e+09 L⁻¹
Segmented neutrophils (RAO horses [5]; [24]): 4.75e+09 L⁻¹
Lymphocytes (RAO horses [5]; [25]): 2.01e+09 L⁻¹
Segmented neutrophils (RAO horses [5]; [25]): 4.84e+09 L⁻¹
counts of lymphocytes (RAO horses [5]; [26]): no change
counts of segmented neutrophils (RAO horses [5]; [26]): no or minor increase
counts of lymphocytes (RAO horses [5]; [27]): no change
counts of segmented neutrophils (RAO horses [5]; [27]): no or minor increase
alteration in the immune system measured by neutrophilia and lymphopenia (RAO horses [5]; treatment for two weeks with different dose levels of ciclesonide): no alteration is observed
Ciclesonide concentration (plasma) ([7]; ciclesonide 1687.5 μg (nozzle B) twice daily per inhalation, day 11, 2 h): <0.500 nmol/L
Ciclesonide concentration (plasma) ([7]; ciclesonide 1687.5 μg (nozzle B) twice daily per inhalation, day 11, 4 h): <0.500 nmol/L
concentration at 0 min [7, 28]: < 0.5 nM
concentration at 10 min [7, 28]: 0.87 nM
concentration at 30 min [7, 28]: < 0.5 nM
concentration at 1 h ([7]; 1687.5 μg/horse, Ciclesonide concentration (plasma), ciclesonide 1687.5 μg (nozzle B) twice daily per inhalation, day 1, 1 h): < 0.5 nM
concentration at 2 h ([7]; 1687.5 μg/horse, Ciclesonide concentration (plasma), ciclesonide 1687.5 μg (nozzle B) twice daily per inhalation, day 1, 2 h): < 0.5 nM
concentration at 4 h ([7]; 1687.5 μg/horse, Ciclesonide concentration (plasma), ciclesonide 1687.5 μg (nozzle B) twice daily per inhalation, day 1, 4 h): < 0.5 nM
concentration at 0 min [7, 29]: < 0.5 nM
concentration at 10 min [7, 29]: 0.97 nM
concentration at 30 min [7, 29]: < 0.5 nM
concentration at 1 h ([7]; 1687.5 μg/horse, Ciclesonide concentration (plasma), ciclesonide 1687.5 μg (nozzle B) twice daily per inhalation, day 11, 1 h): < 0.5 nM
concentration at 0 min [7, 30]: < 0.5 nM
concentration at 10 min [7, 30]: 1.19 nM
concentration at 30 min [7, 30]: 0.51 nM
concentration at 1 h ([7]; 2700 μg/horse, Ciclesonide concentration (plasma), ciclesonide 2700 μg A (nozzle A) twice daily per inhalation, day 1, 1 h): < 0.5 nM
concentration at 2 h ([7]; 2700 μg/horse, Ciclesonide concentration (plasma), ciclesonide 2700 μg A (nozzle A) twice daily per inhalation, day 1, 2 h): < 0.5 nM
concentration at 4 h ([7]; 2700 μg/horse, Ciclesonide concentration (plasma), ciclesonide 2700 μg A (nozzle A) twice daily per inhalation, day 1, 4 h): < 0.5 nM
concentration at 0 min [7, 31]: < 0.5 nM
concentration at 10 min [7, 31]: 1.02 nM
concentration at 30 min [7, 31]: 0.63 nM
concentration at 1 h ([7]; 2700 μg/horse, Ciclesonide concentration (plasma), ciclesonide 2700 μg A (nozzle A) twice daily per inhalation, day 11, 1 h): < 0.5 nM
concentration at 2 h ([7]; 2700 μg/horse, Ciclesonide concentration (plasma), ciclesonide 2700 μg A (nozzle A) twice daily per inhalation, day 11, 2 h): < 0.5 nM
concentration at 4 h ([7]; 2700 μg/horse, Ciclesonide concentration (plasma), ciclesonide 2700 μg A (nozzle A) twice daily per inhalation, day 11, 4 h): < 0.5 nM
concentration at 0 min [7, 32]: < 0.5 nM
concentration at 10 min [7, 32]: 1.16 nM
concentration at 30 min [7, 32]: 0.72 nM
concentration at 1 h ([7]; 2700 μg/horse, Ciclesonide concentration (plasma), ciclesonide 2700 μg B (nozzle B) twice daily per inhalation, day 1, 1 h): < 0.5 nM
concentration at 2 h ([7]; 2700 μg/horse, Ciclesonide concentration (plasma), ciclesonide 2700 μg B (nozzle B) twice daily per inhalation, day 1, 2 h): < 0.5 nM
concentration at 4 h ([7]; 2700 μg/horse, Ciclesonide concentration (plasma), ciclesonide 2700 μg B (nozzle B) twice daily per inhalation, day 1, 4 h): < 0.5 nM
concentration at 0 min [7, 33]: < 0.5 nM
concentration at 10 min [7, 33]: 1.38 nM
concentration at 30 min [7, 33]: 0.63 nM
concentration at 1 h ([7]; 2700 μg/horse, Ciclesonide concentration (plasma), ciclesonide 2700 μg B (nozzle B) twice daily per inhalation, day 11, 1 h): < 0.5 nM
concentration at 2 h ([7]; 2700 μg/horse, Ciclesonide concentration (plasma), ciclesonide 2700 μg B (nozzle B) twice daily per inhalation, day 11, 2 h): < 0.5 nM
concentration at 4 h ([7]; 2700 μg/horse, Ciclesonide concentration (plasma), ciclesonide 2700 μg B (nozzle B) twice daily per inhalation, day 11, 4 h): < 0.5 nM
concentration at 1 h ([7]; concentration of ciclesonide in plasma, samples taken 1 h after drug administration, below lower limit of quantification): < 0.5 nM
conversion of the prodrug into the effective molecule C21-C21-desisobutyrylciclesonide ([7]; in horses (example 5)): can be converted
SMILES: CC(C)C(=O)OCC(=O)[C@@]12O[C@H](C3CCCCC3)O[C@@H]1C[C@H]1[C@@H]3CCC4=CC(=O)C=C[C@]4(C)[C@H]3[C@@H](O)C[C@@]12C [ciclesonide, (11β,16α)-16,17-[[(R)-Cyclohexylmethylene]bis(oxy)]-11-hydroxy-21-(2-methyl-1-oxopropoxy)pregna-1,4-diene-3,20-dione]
ΔPL and EL compared to pretreatment values (RAO horses [1]; ciclesonide 1800 μg/horse ex RESPIMAT twice daily per inhalation, p=0.0005 and p=0.0004): statistically significant reduction
ΔPL and EL, difference to dexamethasone group (RAO horses [1]; ciclesonide 1800 μg/horse ex RESPIMAT twice daily): no significant difference
all lung function variables (ΔPL, RL, EL) compared to pretreatment values (RAO horses [3]; all ciclesonide groups (1687.5 μg nozzle B/2700 μg nozzle A/2700 μg nozzle B twice daily), after 14 days, p=0.0009 to p<0.0001): significantly reduced
lung function variables, difference to dexamethasone group (RAO horses [3]; all ciclesonide groups (1687.5/2700 A/2700 B μg twice daily), after 7 or 14 days): no significant difference
weighted clinical score compared to pretreatment values (RAO horses [3]; all three ciclesonide groups (1687.5/2700 A/2700 B μg twice daily), after 14 days, p=0.0001 to p<0.0001): significantly reduced
weighted clinical score, difference to dexamethasone group (RAO horses [3]; ciclesonide treatment groups (1687.5/2700 A/2700 B μg twice daily), after 14 days): no significant difference
lung function variables (ΔPL, RL, EL) compared to pretreatment values and to placebo group (RAO horses [6]): significantly reduced
